Measurements: US11261201B2 (priority 2018, dated 2022)
Values after ≈ are worked out from the molar mass of the structure shown. Like-named read-outs stand apart in the source and are kept apart here.

Experiments:
A. baumannii = test: Gram negative MIC protocol (OD600, LB, 24 h); conditions: Acinetobacter baumannii
Procedure: (§1) Overnight bacterial cultures were grown in LB with no added antibiotics at 37° C. with shaking. A 1:1000 dilution of these cultures into LB was exposed to concentration gradients of compounds in 96-well plates (100 μL per well assay volume). Resulting plates were incubated at 37° C. for 24 h without shaking, and OD600 was measured at the end of the incubation. MICs were determined as the lowest concentrations at which OD600 remained at baseline.

E. coli = test: Gram negative MIC protocol (OD600, LB, 24 h); conditions: Escherichia coli
Procedure: as §1

H37RvMA = test: Tuberculosis Alamar Blue/Resazurin assay (MIC); type: cell-based; conditions: Mycobacterium tuberculosis, H37RV, read-out: WT H37Rv MTB Activity
[1] = read-out: MIC A. baumannii LB Media, A. baumannii, LB media, 24 h, OD600
[2] = read-out: MIC E. coli delta-TolC LB Media, E. coli delta-TolC, LB media, OD600
[3] = read-out: MIC WT E. coli LB Media, WT E. coli, LB media, OD600
[4] = read-out: MIC A. baumannii LB Media

Row | Structure (SMILES) | MIC (A. baumannii; [1]) | MIC (E. coli; [2]) | MIC (E. coli; [3]) | MIC (H37RvMA; WT H37Rv MTB) | MIC (H37RvMA) | MIC (A. baumannii; [4])
1 | OC1(CCNCc2ccccc2)CC2CCC1C2 (centres unmarked) [B60] | > 150 µM | > 150 µM | > 150 µM | > 150 µM | – | –
2 | c1ccc(CNC[C@@H]2C[C@H]2c2ccccc2)cc1 [B61] | > 150 µM | > 150 µM | > 150 µM | > 150 µM | – | –
3 | CC(NCc1ccccc1)C1CC2CCC1CC2 (centres unmarked) [B62] | > 150 µM | > 150 µM | > 150 µM | > 150 µM | – | –
4 | C1=C(CNCc2ccccc2)CCCC1 [B63] | > 150 µM | > 150 µM | > 150 µM | > 150 µM | – | –
5 | c1ccc(CNCCN2CC3CCC(C2)O3)cc1 [B64] | > 150 µM | > 150 µM | > 150 µM | – | > 150 µM | –
6 | c1ccc(CNCCc2ccc3c(c2)COC3)cc1 [B65] | – | > 150 µM | > 150 µM | – | > 150 µM | > 150 µM
7 | c1ccc(CNCCC2CC3CCC2O3)cc1 (centres unmarked) [B66] | > 150 µM | > 150 µM | > 150 µM | > 150 µM | – | –
8 | CC(C)(CN1CCOCC1)NCc1ccccc1 [B67] | > 150 µM | > 150 µM | > 150 µM | > 150 µM | – | –
9 | COc1ccc(CC(C)NCc2ccccc2)cn1 (centres unmarked) [B68] | > 150 µM | > 150 µM | > 150 µM | – | > 150 µM | –
10 | CC1CC1C(C)NCc1ccccc1 (centres unmarked) [B69] | > 150 µM | > 150 µM | > 150 µM | > 150 µM | – | –
11 | C1=CC2CC1CC2CCNCc1ccccc1 (centres unmarked) [B70] | > 150 µM | > 150 µM | > 150 µM | > 150 µM | – | –
12 | C1=C(CCNCc2ccccc2)CCCCC1 [B71] | > 150 µM | 90 µM (≈ 20.6 µg/mL) | 150 µM (≈ 34.4 µg/mL) | 91 µM (≈ 20.9 µg/mL) | – | –
13 | CC(C)(CNCc1ccccc1)C1=CCCCC1 [B72] | > 150 µM | > 150 µM | > 150 µM | > 150 µM | – | –
14 | Cc1cccc(C)c1CNCCC1=CCCCC1 [B73] | > 150 µM | > 150 µM | > 150 µM | > 150 µM | – | –
15 | CC(C)(CNCc1ccccc1)C1=CCCC1 [B74] | > 150 µM | > 150 µM | > 150 µM | > 150 µM | – | –
16 | CC(Cc1ccccn1)NCc1ccccc1 (centres unmarked) [B75] | > 150 µM | > 150 µM | > 150 µM | – | > 150 µM | –

Row | Structure (SMILES) | MIC (A. baumannii; [1]) | MIC (E. coli; [2]) | MIC (E. coli; [3]) | MIC (H37RvMA; WT H37Rv MTB) | MIC (H37RvMA) | MIC (A. baumannii; [4])
17 | CC(NCc1ccccc1)C1CC1c1ccc(F)cc1 (centres unmarked) [B76] | > 150 µM | > 150 µM | > 150 µM | > 150 µM | – | –
18 | CC(NCc1ccccc1)C1C(C)(C)C1(C)C (centres unmarked) [B77] | > 150 µM | > 150 µM | > 150 µM | > 150 µM | – | –
19 | CC1CC(C)CC(C(C)NCc2ccccc2)C1 (centres unmarked) [B79] | > 150 µM | > 150 µM | > 150 µM | 91 µM (≈ 22.3 µg/mL) | – | –
20 | CC(NCc1ccccc1)C12C[C@H]3C[C@H](C1)C[C@@H](C2)C3 (some centres unmarked) [B80] | > 150 µM | 90 µM (≈ 24.2 µg/mL) | 250 µM (≈ 67.4 µg/mL) | > 150 µM | – | –
21 | CC(Cc1cccc(C(F)(F)F)c1)NCc1ccccc1 (centres unmarked) [B81] | – | > 150 µM | > 150 µM | – | > 150 µM | > 150 µM
22 | CC(Cc1ncccn1)NCc1ccccc1 (centres unmarked) [B82] | > 150 µM | > 150 µM | > 150 µM | – | > 150 µM | –
23 | c1ccc(CNCCC2CCCOC2)cc1 (centres unmarked) [B83] | > 150 µM | > 150 µM | > 150 µM | > 150 µM | – | –
24 | COc1cc(CC(C)NCc2ccccc2)ncn1 (centres unmarked) [B84] | > 150 µM | > 150 µM | > 150 µM | – | > 150 µM | –
25 | COc1cc(CC(C)NCc2ccccc2)ccn1 (centres unmarked) [B85] | > 150 µM | > 150 µM | > 150 µM | – | > 150 µM | –
26 | C[C@H](NCc1ccccc1)[C@@H]1C[C@H]1c1ccccc1 [B86] | > 150 µM | > 150 µM | > 150 µM | > 150 µM | – | –
27 | CC(NCc1ccccc1)C12CCC(CC1)CC2 (centres unmarked) [B87] | > 150 µM | > 150 µM | 300 µM (≈ 73 µg/mL) | > 150 µM | – | –
28 | CC1(C)[C@@H]2C[C@](C)(CNCc3ccccc3)C[C@@H]21 [B88] | > 150 µM | > 150 µM | > 150 µM | > 150 µM | – | –
29 | CC(NCc1ccccc1)C(C)C1CCCCC1 (centres unmarked) [B89] | > 150 µM | > 150 µM | 300 µM (≈ 73.6 µg/mL) | 91 µM (≈ 22.3 µg/mL) | – | –
30 | CC(C)(CN1CCCOCC1)NCc1ccccc1 [B90] | > 150 µM | > 150 µM | > 150 µM | > 150 µM | – | –
31 | Brc1ccc(CC2(NCc3ccccc3)CC2)cc1 [B91] | > 150 µM | 90 µM (≈ 28.5 µg/mL) | > 150 µM | – | > 150 µM | –
32 | CC(C)(CC1CCCCCC1)NCc1ccccc1 [B92] | > 150 µM | > 150 µM | > 150 µM | > 150 µM | – | –
